In brackets after ≈: the same amount, converted by molar mass.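 Step 1: Grow cells in 96-well plates. Step 2: Expose to compound for 48 hours at 5 concentrations. Step 3: Interpolate endpoints linearly; if unreached, use highest concentration. GI50 = concentration required for 50% inhibition of growth. TGI: total growth inhibition.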
How the values were obtained:
Assay in all cases: NCI anticancer screen, dose series, 48 h
[1] = test system: HCT-116 colon
[2] = test system: SR leukemia
[3] = test system: HCT-15 colon
[4] = test system: T-47D breast
[5] = test system: KM12 colon
[6] = test system: RPMI-8226 leukemia
[7] = test system: NCI-H23 lung
[8] = test system: SF-268 CNS
[9] = test system: U251 CNS
[10] = test system: PC-3 prostate
[11] = test system: ACHN renal
[12] = test system: HT29 colon
[13] = test system: HL-60(TB) leukemia
[14] = test system: DU-145 prostate
[15] = test system: BT-549 breast
[16] = test system: NCI-H460 lung
[17] = test system: COLO 205 colon
[18] = test system: UACC-257 melanoma
[19] = test system: MDA-N
[20] = test system: MDA-MB-435
[21] = test system: CAKI-1 renal
[22] = test system: OVCAR-5 ovarian
[23] = test system: K-562 leukemia
[24] = test system: SNB-19 CNS
[25] = test system: SN12C renal
[26] = test system: TK-10 renal
[27] = test system: SNB-75 CNS
[28] = test system: OVCAR-3 ovarian
[29] = test system: IGROV1 ovarian
[30] = test system: SF-295 CNS
[31] = test system: OVCAR-8 ovarian
[32] = test system: MCF7 breast
[33] = test system: SF-539 CNS
[34] = test system: UO-31 renal
[35] = test system: HS 578T breast
[36] = test system: UACC-62 melanoma
[37] = test system: MOLT-4 leukemia
[38] = test system: SW-620 colon
[39] = test system: MALME-3M melanoma
[40] = test system: MDA-MB-231 breast
[41] = test system: CCRF-CEM leukemia
[42] = test system: EKVX NSCLC
[43] = test system: A549 NSCLC
[44] = test system: OVCAR-4 ovarian
[45] = test system: RXF 393 renal
[46] = test system: SK-OV-3 ovarian
[47] = test system: M14 melanoma
[48] = test system: SK-MEL-28 melanoma
[49] = test system: NCI/ADR-RES ovarian
[50] = test system: SK-MEL-5 melanoma
[51] = test system: HOP-62 NSCLC
[52] = test system: LOX IMVI melanoma

## O=C1NN(C2=NNC3(C(=O)N2)c2ccccc2-c2ccccc23)C(c2ccccc2)=N/C1=C/c1ccc(O)cc1
[1]
  GI50: 103 µg/mL (≈ 196 µM)
  TGI: > 150 µg/mL
[2]
  GI50: 59.7 µg/mL (≈ 113 µM)
  TGI: > 150 µg/mL
[3]
  GI50: 49.6 µg/mL (≈ 94.3 µM)
  TGI: > 150 µg/mL
[4]
  GI50: 27 µg/mL (≈ 51.2 µM)
  TGI: > 150 µg/mL
[5]
  GI50: 28.6 µg/mL (≈ 54.4 µM)
  TGI: 57.6 µg/mL (≈ 109 µM)
[6]
  GI50: 70.6 µg/mL (≈ 134 µM)
  TGI: > 150 µg/mL
[7]
  GI50: 61.5 µg/mL (≈ 117 µM)
  TGI: > 150 µg/mL
[8]
  GI50: 49.9 µg/mL (≈ 94.9 µM)
  TGI: > 150 µg/mL
[9]
  GI50: 104 µg/mL (≈ 198 µM)
  TGI: > 150 µg/mL
[10]
  GI50: 56.3 µg/mL (≈ 107 µM)
  TGI: > 150 µg/mL
[11]
  GI50: 41.7 µg/mL (≈ 79.2 µM)
  TGI: > 150 µg/mL
[12]
  GI50: > 150 µg/mL
  TGI: > 150 µg/mL
[13]
  GI50: 51.7 µg/mL (≈ 98.2 µM)
  TGI: > 150 µg/mL
[14]
  GI50: 90.8 µg/mL (≈ 172 µM)
  TGI: > 150 µg/mL
[15]
  GI50: > 150 µg/mL
  TGI: > 150 µg/mL
[16]
  GI50: 57.6 µg/mL (≈ 109 µM)
  TGI: > 150 µg/mL
[17]
  GI50: > 150 µg/mL
  TGI: > 150 µg/mL
[18]
  GI50: 113 µg/mL (≈ 214 µM)
  TGI: > 150 µg/mL
[19]
  GI50: 56.8 µg/mL (≈ 108 µM)
  TGI: > 150 µg/mL
[20]
  GI50: 69.9 µg/mL (≈ 133 µM)
  TGI: > 150 µg/mL
[21]
  GI50: 64.2 µg/mL (≈ 122 µM)
  TGI: > 150 µg/mL
[22]
  GI50: > 150 µg/mL
  TGI: > 150 µg/mL
[23]
  GI50: 35.8 µg/mL (≈ 68 µM)
  TGI: > 150 µg/mL
[24]
  GI50: 94.9 µg/mL (≈ 180 µM)
  TGI: > 150 µg/mL
[25]
  GI50: 74.2 µg/mL (≈ 141 µM)
  TGI: > 150 µg/mL
[26]
  GI50: 39.1 µg/mL (≈ 74.2 µM)
  TGI: 71.9 µg/mL (≈ 136 µM)
[27]
  GI50: 57.4 µg/mL (≈ 109 µM)
  TGI: > 150 µg/mL
[28]
  GI50: 55.1 µg/mL (≈ 105 µM)
  TGI: > 150 µg/mL
[29]
  GI50: 15 µg/mL (≈ 28.5 µM)
  TGI: 15 µg/mL (≈ 28.5 µM)
[30]
  GI50: 56.9 µg/mL (≈ 108 µM)
  TGI: > 150 µg/mL
[31]
  GI50: 65.9 µg/mL (≈ 125 µM)
  TGI: > 150 µg/mL
[32]
  GI50: 39.4 µg/mL (≈ 74.9 µM)
  TGI: > 150 µg/mL
[33]
  GI50: 32.7 µg/mL (≈ 62.1 µM)
  TGI: 87.5 µg/mL (≈ 166 µM)
[34]
  GI50: 48.9 µg/mL (≈ 92.8 µM)
  TGI: > 150 µg/mL
[35]
  GI50: 50.4 µg/mL (≈ 95.7 µM)
  TGI: > 150 µg/mL
[36]
  GI50: 33.5 µg/mL (≈ 63.7 µM)
  TGI: 92.2 µg/mL (≈ 175 µM)
[37]
  GI50: 15 µg/mL (≈ 28.5 µM)
  TGI: 15 µg/mL (≈ 28.5 µM)
[38]
  GI50: 82.5 µg/mL (≈ 157 µM)
  TGI: > 150 µg/mL
[39]
  GI50: 15 µg/mL (≈ 28.5 µM)
  TGI: 15 µg/mL (≈ 28.5 µM)
[40]
  GI50: 26.2 µg/mL (≈ 49.7 µM)
  TGI: 71.7 µg/mL (≈ 136 µM)
[41]
  GI50: 46.4 µg/mL (≈ 88.2 µM)
  TGI: > 150 µg/mL
[42]
  GI50: 47.4 µg/mL (≈ 90 µM)
  TGI: > 150 µg/mL
[43]
  GI50: 74.7 µg/mL (≈ 142 µM)
  TGI: > 150 µg/mL
[44]
  GI50: 57.5 µg/mL (≈ 109 µM)
  TGI: > 150 µg/mL
[45]
  GI50: 97 µg/mL (≈ 184 µM)
  TGI: > 150 µg/mL
[46]
  GI50: 25.6 µg/mL (≈ 48.7 µM)
  TGI: > 150 µg/mL
[47]
  GI50: 57.6 µg/mL (≈ 109 µM)
  TGI: > 150 µg/mL
[48]
  GI50: 83 µg/mL (≈ 158 µM)
  TGI: > 150 µg/mL
[49]
  GI50: 50.9 µg/mL (≈ 96.7 µM)
  TGI: > 150 µg/mL
[50]
  GI50: 39.2 µg/mL (≈ 74.5 µM)
  TGI: > 150 µg/mL
[51]
  GI50: 39.9 µg/mL (≈ 75.7 µM)
  TGI: 138 µg/mL (≈ 262 µM)
[52]
  GI50: 32.2 µg/mL (≈ 61.2 µM)
  TGI: 71.3 µg/mL (≈ 135 µM)

Source: PubChem BioAssay (NCI)
